Assay results published in patent US20120202754A1 (priority 2009, published 2012).

molecular target: BoNT A light chain (BoNT A Lc) (Clostridium botulinum, UniProt P0DPI0); assay type: biochemical
Sequence (P0DPI0 2-448 limits assumed): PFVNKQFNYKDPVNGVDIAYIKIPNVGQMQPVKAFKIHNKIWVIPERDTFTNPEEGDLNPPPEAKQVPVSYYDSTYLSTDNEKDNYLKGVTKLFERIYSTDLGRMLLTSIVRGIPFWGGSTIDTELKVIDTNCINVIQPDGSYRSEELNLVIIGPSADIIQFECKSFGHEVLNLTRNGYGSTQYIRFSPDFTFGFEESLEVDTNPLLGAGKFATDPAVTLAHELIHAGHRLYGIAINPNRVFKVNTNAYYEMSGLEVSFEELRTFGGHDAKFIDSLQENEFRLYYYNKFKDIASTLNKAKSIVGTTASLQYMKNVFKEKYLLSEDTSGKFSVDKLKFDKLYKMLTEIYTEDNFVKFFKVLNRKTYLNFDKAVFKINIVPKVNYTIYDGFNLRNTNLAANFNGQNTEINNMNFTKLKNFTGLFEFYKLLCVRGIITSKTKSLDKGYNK

Row | Substance | effect of substitution or truncation on hydrolysis rate (in words)
1 | V R I D A A N Q R A T R M [Peptide P7] | decreased the hydrolysis rate significantly
2 | S N K V R I D Q A N Q R A T K M L [Peptide P3] | further enhanced the rate
3 | N R V R I D A A N Q R A T R M [Peptide P5] | enhanced cleavage velocity
4 | S N R V R I D Q A N Q R A T R M L [Peptide P4] | had no effect
